From patent US20240174714A1, “TREATMENT OF SKIN DISORDERS” (priority 2021, published 2024)
Where two headings read alike, the source gives them in different places. Square brackets hold non-standard residues; d marks the D form. Peptide text beside a SMILES is read from it. * marks the point of attachment. NH((S)CH(Me)CH2NMe2) = C[C@@H](CN(C)C)N*; NH(1-CH2NMe2-cBu) = CN(C)CC1(N*)CCC1; Gly(octyl) = CCCCCCCC[C@H](N)C(=O)O; Oxazole4CO(2-Me) = Cc1nc(C(=O)*)co1; Benzoyl(4-F) = O=C(c1ccc(F)cc1)*; hCha = N[C@@H](CCC1CCCCC1)C(=O)O; Aoc(2) = CCCCCC[C@H](N)C(=O)O; Pyrrole2CO = O=C(c1ccc[nH]1)*; X10 = O=C(c1ccc2cccnc2c1)*; X3 = C[C@@H](CN1CCOCC1)N*; X12 = CN(C)CC1(N*)CCCC1; Aib = CC(C)(N)C(=O)O; X11 = CN(CCN*)CC(F)F; βAla = NCCC(=O)O; tBu = CC(C)(C)*

Legend:
[1] = test system: intracellular Leishmania donovani MHOM-ET-67/L82 amastigotes; test: In vitro antiprotozoal assay, intracellular amastigotes; type: cell-based
Protocol: (§1) The testing of the inventive compounds against Leishmania donovani (strain MHOM/ET/67/L82) was performed in 96 well plates at concentrations in serial dilutions. Tests were done in triplicate.

[2] = test system: axenic Leishmania donovani MHOM-ET-67/L82 amastigotes; test: In vitro antiprotozoal assay, axenic amastigotes; type: cell-based
Protocol: as §1

[3] = Cytotoxicity assay (Alamar Blue) on L6-cells; type: cell-based, rat
Protocol: Tests were done in triplicate.
The plates were incubated for additional 2 h.

[4] = intracellular amastigotes, read-out: L.don.InMac IC50
[5] = axenic amastigotes, read-out: L.don.ax. IC50
[6] = rat myoblast L6 cells, read-out: Cytotox L6 IC50

Row | SMILES | IC50 [2, 5] [µM] | IC50 at 68 h ([3]; rat) [µM] | further results
1 | Cc1nc(C(=O)N2CCC[C@H]2C(=O)N[C@@H](COC(C)(C)C)C(=O)N[C@@H](CC(C)C)C(=O)NC(C)(C)C(=O)N[C@@H](CC(C)C)C(=O)N[C@@H](CC(C)C)C(=O)NC(C)(C)C(=O)NC(C)(C)C(=O)NCCC(=O)NC2(CN(C)C)CCC2)co1 [Compound 6780, (2S)-2-[(2S)-2-{2-[(2S)-2-[(2S)-3-(tert-butoxy)-2-{[(2S)-1-(2-methyl-1,3-oxazole-4-carbonyl)pyrrolidin-2-yl]formamido}propanamido]-4-methylpentanamido]-2-methylpropanamido}-4-methylpentanamido]-N-{1-[(1-{[2-({1-[(dimethylamino)methyl]cyclobutyl}carbamoyl)ethyl]carbamoyl}-1-methylethyl)carbamoyl]-1-methylethyl}-4-methylpentanamide] ({Oxazole4CO(2-Me)}-PS(tBu)L[Aib]LL[Aib][Aib][βAla]-{NH(1-CH2NMe2-cBu)}) | 0.166 | 8.75 | IC50 [1, 4]: 0.997 µM
2 | Cc1nc(C(=O)N2CCC[C@H]2C(=O)N[C@@H](CCC2CCCCC2)C(=O)N[C@@H](CC(C)C)C(=O)NC(C)(C)C(=O)N[C@@H](CC(C)C)C(=O)N[C@@H](CC(C)C)C(=O)NC(C)(C)C(=O)NC(C)(C)C(=O)NCCC(=O)N[C@@H](C)CN2CCOCC2)co1 [Compound 6026, (2S)-2-[(2S)-2-{2-[(2S)-2-[(2S)-4-cyclohexyl-2-{[(2S)-1-(2-methyl-1,3-oxazole-4-carbonyl)pyrrolidin-2-yl]formamido}butanamido]-4-methylpentanamido]-2-methylpropanamido}-4-methylpentanamido]-4-methyl-N-[1-methyl-1-({1-methyl-1-[(2-{[(2S)-1-(morpholin-4-yl)propan-2-yl]carbamoyl}ethyl)carbamoyl]ethyl}carbamoyl)ethyl]pentanamide] ({Oxazole4CO(2-Me)}-P[hCha]L[Aib]LL[Aib][Aib][βAla]-X3) | 0.0042 | 1.58 | IC50 [1, 4]: 0.0507 µM
3 | CCCCCC[C@H](NC(=O)[C@@H]1CCCN1C(=O)c1coc(C)n1)C(=O)N[C@@H](CC(C)C)C(=O)NC(C)(C)C(=O)N[C@@H](CC(C)C)C(=O)N[C@@H](CC(C)C)C(=O)NC(C)(C)C(=O)NC(C)(C)C(=O)NCCC(=O)NC1(CN(C)C)CCC1 [Compound 6894, (2S)—N-[(1S)-1-[(1-{[(1S)-1-{[(1S)-1-({1-[(1-{[2-({1-[(dimethylamino)methyl]cyclobutyl}carbamoyl)ethyl]carbamoyl}-1-methylethyl)carbamoyl]-1-methylethyl}carbamoyl)-3-methylbutyl]carbamoyl}-3-methylbutyl]carbamoyl}-1-methylethyl)carbamoyl]-3-methylbutyl]-2-{[(2S)-1-(2-methyl-1,3-oxazole-4-carbonyl)pyrrolidin-2-yl]formamido}octanamide] ({Oxazole4CO(2-Me)}-P[Aoc(2)]L[Aib]LL[Aib][Aib][βAla]-{NH(1-CH2NMe2-cBu)}) | 0.0206 | 4.74 | IC50 [1, 4]: 0.383 µM
4 | CCCCCCCCCCCCCCCCOP(=O)([O-])OCC[N+](C)(C)C [Miltefosine, reference compound] |  |  | IC50 ([1]; Leishmania donovani, reference compound, L.don.InMac, read-out: IC50 Concurrent): 0.162 µM; IC50 ([2]; Leishmania donovani, reference compound, L.don.ax., read-out: IC50 Concurrent): 0.162 µM
5 | CCCCCCCC[C@H](NC(=O)[C@@H]1CCCN1C(=O)c1coc(C)n1)C(=O)N[C@@H](CC(C)C)C(=O)NC(C)(C)C(=O)N[C@@H](CC(C)C)C(=O)N[C@@H](CC(C)C)C(=O)NC(C)(C)C(=O)NC(C)(C)C(=O)NCCC(=O)NC1(CN(C)C)CCCC1 [Compound 6254, (2S)-N-[(1S)-1-[(1-{[(1S)-1-{[(1S)-1-({1-[(1-{[2-({1-[(dimethylamino)methyl]cyclopentyl}carbamoyl)ethyl]carbamoyl}-1-methylethyl)carbamoyl]-1-methylethyl}carbamoyl)-3-methylbutyl]carbamoyl}-3-methylbutyl]carbamoyl}-1-methylethyl)carbamoyl]-3-methylbutyl]-2-{[(2S)-1-(2-methyl-1,3-oxazole-4-carbonyl)pyrrolidin-2-yl]formamido}decanamide] ({Oxazole4CO(2-Me)}-P[Gly(octyl)]L[Aib]LL[Aib][Aib][βAla]-X12) | 0.0025 | 0.528 | 
6 | Cc1nc(C(=O)N2CCC[C@H]2C(=O)N[C@@H](CCC2CCCCC2)C(=O)N[C@@H](CC(C)C)C(=O)NC(C)(C)C(=O)N[C@@H](CC(C)C)C(=O)N[C@@H](CC(C)C)C(=O)NC(C)(C)C(=O)NC(C)(C)C(=O)NCCC(=O)NCCN(C)CC(F)F)co1 [Compound 6488, (2S)-2-[(2S)-4-cyclohexyl-2-{[(2S)-1-(2-methyl-1,3-oxazole-4-carbonyl)pyrrolidin-2-yl]formamido}butanamido]-N-(1-{[(1S)-1-{[(1S)-1-({1-[(1-{[2-({2-[(2,2-difluoroethyl)(methyl)amino]ethyl}carbamoyl)ethyl]carbamoyl}-1-methylethyl)carbamoyl]-1-methylethyl}carbamoyl)-3-methylbutyl]carbamoyl}-3-methylbutyl]carbamoyl}-1-methylethyl)-4-methylpentanamide] ({Oxazole4CO(2-Me)}-P[hCha]L[Aib]LL[Aib][Aib][βAla]-X11) | 0.429 |  | IC50 at 68 h [3, 6]: 7.18 µM
7 | CCCCCCCC[C@H](NC(=O)[C@@H]1CCCN1C(=O)c1ccc2cccnc2c1)C(=O)N[C@@H](CC(C)C)C(=O)NC(C)(C)C(=O)N[C@@H](CC(C)C)C(=O)N[C@@H](CC(C)C)C(=O)NC(C)(C)C(=O)NC(C)(C)C(=O)NCCC(=O)N[C@@H](C)CN(C)C [Compound 5938, (2S)-N-[(1S)-1-[(1-{[(1S)-1-{[(1S)-1-{[1-({1-[(2-{[(2S)-1-(dimethylamino)propan-2-yl]carbamoyl}ethyl)carbamoyl]-1-methylethyl}carbamoyl)-1-methylethyl]carbamoyl}-3-methylbutyl]carbamoyl}-3-methylbutyl]carbamoyl}-1-methylethyl)carbamoyl]-3-methylbutyl]-2-{[(2S)-1-(quinoline-7-carbonyl)pyrrolidin-2-yl]formamido}decanamide] (X10-P[Gly(octyl)]L[Aib]LL[Aib][Aib][βAla]-{NH((S)CH(Me)CH2NMe2)}) |  |  | IC50 [2]: 0.013 µM; IC50 at 68 h [3, 6]: 0.714 µM
8 | CCCCCCCC[C@H](NC(=O)[C@@H]1CCCN1C(=O)c1ccc[nH]1)C(=O)N[C@@H](CC(C)C)C(=O)NC(C)(C)C(=O)N[C@@H](CC(C)C)C(=O)N[C@@H](CC(C)C)C(=O)NC(C)(C)C(=O)NC(C)(C)C(=O)NCCC(=O)N[C@@H](C)CN(C)C [Compound 5939, (2S)-N-[(1S)-1-[(1-{[(1S)-1-{[(1S)-1-{[1-({1-[(2-{[(2S)-1-(dimethylamino)propan-2-yl]carbamoyl}ethyl)carbamoyl]-1-methylethyl}carbamoyl)-1-methylethyl]carbamoyl}-3-methylbutyl]carbamoyl}-3-methylbutyl]carbamoyl}-1-methylethyl)carbamoyl]-3-methylbutyl]-2-{[(2S)-1-(1H-pyrrole-2-carbonyl)pyrrolidin-2-yl]formamido}decanamide] (Pyrrole2CO-P[Gly(octyl)]L[Aib]LL[Aib][Aib][βAla]-{NH((S)CH(Me)CH2NMe2)}) | 0.008 | 0.611 | 
9 | Cc1nc(C(=O)N2CCC[C@H]2C(=O)N[C@@H](Cc2ccccc2)C(=O)N[C@@H](CC(C)C)C(=O)NC(C)(C)C(=O)N[C@@H](CC(C)C)C(=O)N[C@@H](CC(C)C)C(=O)NC(C)(C)C(=O)NC(C)(C)C(=O)NCCC(=O)NC2(CN(C)C)CCC2)co1 [Compound 6328, (2S)-N-(1-{[(1S)-1-{[(1S)-1-({1-[(1-{[2-({1-[(dimethylamino)methyl]cyclobutyl}carbamoyl)ethyl]carbamoyl}-1-methylethyl)carbamoyl]-1-methylethyl}carbamoyl)-3-methylbutyl]carbamoyl}-3-methylbutyl]carbamoyl}-1-methylethyl)-4-methyl-2-[(2S)-2-{[(2S)-1-(2-methyl-1,3-oxazole-4-carbonyl)pyrrolidin-2-yl]formamido}-3-phenylpropanamido]pentanamide] (HELM PEPTIDE1{[Cc1nc(C(=O)[*:2])co1].P.F.L.[Aib].L.L.[Aib].[Aib].[bAla].[CN(C)CC1(N[*:1])CCC1]}$$$$V2.0) | 0.381 | 8.71 | 
10 | CC(C)C[C@H](NC(=O)[C@H](CCC1CCCCC1)NC(=O)[C@@H]1CCCN1C(=O)c1ccc(F)cc1)C(=O)NC(C)(C)C(=O)N[C@@H](CC(C)C)C(=O)N[C@@H](CC(C)C)C(=O)NC(C)(C)C(=O)NC(C)(C)C(=O)NCCC(=O)NCCN(C)CC(F)F [Compound 8342, (2S)-2-[(2S)-4-cyclohexyl-2-{[(2S)-1-(4-fluorobenzoyl)pyrrolidin-2-yl]formamido}butanamido]-N-(1-{[(1S)-1-{[(1S)-1-({1-[(1-{[2-({2-[(2,2-difluoroethyl)(methyl)amino]ethyl}carbamoyl)ethyl]carbamoyl}-1-methylethyl)carbamoyl]-1-methylethyl}carbamoyl)-3-methylbutyl]carbamoyl}-3-methylbutyl]carbamoyl}-1-methylethyl)-4-methylpentanamide] ({Benzoyl(4-F)}-P[hCha]L[Aib]LL[Aib][Aib][βAla]-X11) |  |  | IC50 at 68 h [3, 6]: 6.79 µM
11 | CCCCCCCC[C@H](NC(=O)[C@@H]1CCCN1C(=O)c1coc(C)n1)C(=O)N[C@@H](CC(C)C)C(=O)NC(C)(C)C(=O)N[C@@H](CC(C)C)C(=O)N[C@@H](CC(C)C)C(=O)NC(C)(C)C(=O)NC(C)(C)C(=O)NCCC(=O)NC1(CN(C)C)CCC1 [Compound 6253, (2S)-N-[(1S)-1-[(1-{[(1S)-1-{[(1S)-1-({1-[(1-{[2-({1-[(dimethylamino)methyl]cyclobutyl}carbamoyl)ethyl]carbamoyl}-1-methylethyl)carbamoyl]-1-methylethyl}carbamoyl)-3-methylbutyl]carbamoyl}-3-methylbutyl]carbamoyl}-1-methylethyl)carbamoyl]-3-methylbutyl]-2-{[(2S)-1-(2-methyl-1,3-oxazole-4-carbonyl)pyrrolidin-2-yl]formamido}decanamide] ({Oxazole4CO(2-Me)}-P[Gly(octyl)]L[Aib]LL[Aib][Aib][βAla]-{NH(1-CH2NMe2-cBu)}) | 0.0026 | 0.945 | 
